Data taken from patent US11981686B2, “Urea compound having substituent” (DAIICHI SANKYO COMPANY, LIMITED, priority 2019, dated 2024).

target: SIRT6 enzyme (Homo sapiens, UniProt Q8N6T7); experiment: Measurement of deacetylation activity (SIRT6, AlphaLISA, H3K9(Ac) peptide); assay type: biochemical; conditions: SIRT6 25 ng/mL, H3K9(Ac) biotin peptide 2 nM, NAD 10 μM, room temperature 30 minutes, duplicate
In short: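 SIRT6 (25 ng/mL final) in Tris-HCl pH 8.0 buffer with compound (e.g. 0.046–100 μM final) reacted with biotin-H3K9(Ac) peptide (2 nM) and NAD+ (10 μM), 30 min, room temperature. Stopped with nicotinamide plus AlphaLISA anti-unmodified H3K9/K27 beads, 60 min; EC150 (150% relative activity) from sigmoidal fit.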

SIRT6 enzyme, sequence (Q8N6T7 whole entry, species assumed): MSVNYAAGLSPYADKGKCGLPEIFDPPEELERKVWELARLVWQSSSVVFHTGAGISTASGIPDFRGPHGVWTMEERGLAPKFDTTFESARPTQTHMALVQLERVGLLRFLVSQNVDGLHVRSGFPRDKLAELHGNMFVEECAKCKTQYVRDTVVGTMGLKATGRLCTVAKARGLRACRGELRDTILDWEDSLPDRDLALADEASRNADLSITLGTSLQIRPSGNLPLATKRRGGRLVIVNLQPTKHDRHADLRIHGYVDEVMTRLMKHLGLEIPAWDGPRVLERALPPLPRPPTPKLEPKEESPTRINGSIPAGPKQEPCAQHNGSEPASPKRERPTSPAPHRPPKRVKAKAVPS

Structure (SMILES) | EC150 (the concentration of the compound showing a relative enzyme activity of 150%)
CCOc1cccc(-c2nnc(N3[C@@H]4COC[C@H]3c3sc(NC(=O)NC)nc3C4)o2)c1 [Example 121, N-{(4S,8S)-10-[5-(3-ethoxyphenyl)-1,3,4-oxadiazol-2-yl]-4,7,8,9-tetrahydro-5H-4,8-epiminooxocino[5,4-d][1,3]thiazol-2-yl}-N′-methylurea] | 2.1 μm
COc1ccc(-c2noc(N3CCc4nc(NC(=O)NC5CCOCC5)sc4C3)n2)cc1 [Example 107, N-{5-[3-(4-methoxyphenyl)-1,2,4-oxadiazol-5-yl]-4,5,6,7-tetrahydro[1,3]thiazolo[5,4-c]pyridin-2-yl}-N′-oxan-4-ylurea] | 2.3 μm
C[C@H](CO)NC(=O)Nc1nc2c(s1)C1CCC(C2)N1c1nc2cc(S(C)(=O)=O)ccc2o1 (stereo partly drawn) [Example 152, N-[(2R)-1-hydroxypropan-2-yl]-N′-{9-[5-(methanesulfonyl)-1,3-benzoxazol-2-yl]-5,6,7,8-tetrahydro-4H-5,8-epiminocyclohepta[d][1,3]thiazol-2-yl}urea] | 2.7 μm
CC(C)(O)CNC(=O)Nc1nc2c(s1)CN(c1nc(C3CCCC(F)(F)C3)no1)CC2 (stereo not drawn) [Example 28, N-{5-[3-(3,3-difluorocyclohexyl)-1,2,4-oxadiazol-5-yl]-4,5,6,7-tetrahydro[1,3]thiazolo[5,4-c]pyridin-2-yl}-N′-(2-hydroxy-2-methylpropyl)urea] | 2.1 μm
COc1cccc(-c2cc(N3[C@@H]4COC[C@H]3c3sc(NC(=O)N[C@H]5CCOC5)nc3C4)no2)n1 [Example 162, N-{(4S,8S)-10-[5-(6-methoxypyridin-2-yl)-1,2-oxazol-3-yl]-4,7,8,9-tetrahydro-5H-4,8-epiminooxocino[5,4-d][1,3]thiazol-2-yl}-N′-[(3S)-oxolan-3-yl]urea] | 3.3 μm
C[C@H](CO)NC(=O)Nc1nc2c(s1)[C@@H]1COC[C@H](C2)N1c1ncc(-c2cccc(C(F)F)c2)o1 [Example 71, N-[(4S,8S)-10-{5-[3-(difluoromethyl)phenyl]-1,3-oxazol-2-yl}-4,7,8,9-tetrahydro-5H-4,8-epiminooxocino[5,4-d][1,3]thiazol-2-yl]-N′-[(2R)-1-hydroxypropan-2-yl]urea] | 0.34 μm
O=C(NCC1(O)CCOCC1)Nc1nc2c(s1)[C@@H]1COC[C@H](C2)N1c1nc2cc(Cl)ccc2o1 [Example 150, N-[(4S,8S)-10-(5-chloro-1,3-benzoxazol-2-yl)-4,7,8,9-tetrahydro-5H-4,8-epiminooxocino[5,4-d][1,3]thiazol-2-yl]-N′-[(4-hydroxyoxan-4-yl)methyl]urea] | 0.43 μm
CCO[C@H](C)c1nnc(N2CCc3nc(NC(=O)NC)sc3C2)o1 [Example 3, N-(5-{5-[(1R)-1-ethoxyethyl]-1,3,4-oxadiazol-2-yl}-4,5,6,7-tetrahydro[1,3]thiazolo[5,4-c]pyridin-2-yl)-N′-methylurea] | 3.4 μm
C[C@H](CO)NC(=O)Nc1nc2c(s1)[C@@H]1COC[C@H](C2)N1c1nc2cc(C(F)F)ccc2o1 [Example 56, N-{(4S,8S)-10-[5-(difluoromethyl)-1,3-benzoxazol-2-yl]-4,7,8,9-tetrahydro-5H-4,8-epiminooxocino[5,4-d][1,3]thiazol-2-yl}-N′-[(2R)-1-hydroxypropan-2-yl]urea] | 0.19 μm
CNC(=O)Nc1nc2c(s1)C1CCC(C2)N1c1cc(-c2ccc(F)cc2)on1 (stereo not drawn) [Example 11, N-{9-[5-(4-fluorophenyl)-1,2-oxazol-3-yl]-5,6,7,8-tetrahydro-4H-5,8-epiminocyclohepta[d][1,3]thiazol-2-yl}-N′-methylurea] | 4.3 μm
[2H]C([2H])([2H])Oc1ccc2oc(N3[C@@H]4COC[C@H]3c3sc(NC(=O)N[C@H](C)CO)nc3C4)nc2c1 [Example 76, N-[(2R)-1-hydroxypropan-2-yl]-N′-[(4S,8S)-10-{5-[(^2H3)methyloxy]-1,3-benzoxazol-2-yl}-4,7,8,9-tetrahydro-5H-4,8-epiminooxocino[5,4-d][1,3]thiazol-2-yl]urea] | 1.3 μm
[2H]C([2H])([2H])Oc1ccc2oc(N3[C@@H]4COC[C@H]3c3sc(NC(=O)N[C@@H]5CCOC5)nc3C4)nc2c1 [Example 77, N-[(4S,8S)-10-{5-[(^2H3)methyloxy]-1,3-benzoxazol-2-yl}-4,7,8,9-tetrahydro-5H-4,8-epiminooxocino[5,4-d][1,3]thiazol-2-yl]-N′-[(3R)-oxolan-3-yl]urea] | 0.79 μm
CNC(=O)Nc1nc2c(s1)C1COCC(C2)N1c1nc([C@H]2CC[C@@H](C(F)(F)F)CC2)no1 (stereo partly drawn) [Example 6, N-methyl-N′-(10-{3-[(1s,4s)-4-(trifluoromethyl)cyclohexyl]-1,2,4-oxadiazol-5-yl}-4,7,8,9-tetrahydro-5H-4,8-epiminooxocino[5,4-d][1,3]thiazol-2-yl)urea] | 4.5 μm
CNC(=O)Nc1nc2c(s1)C1COCC(C2)N1c1cc(-c2ccc(F)cc2)on1 (stereo not drawn) [Example 16, N-{10-[5-(4-fluorophenyl)-1,2-oxazol-3-yl]-4,7,8,9-tetrahydro-5H-4,8-epiminooxocino[5,4-d][1,3]thiazol-2-yl}-N′-methylurea] | 4.2 μm
O=C(Nc1nc2c(s1)[C@@H]1COC[C@H](C2)N1c1cc(C2CCC(F)(F)CC2)on1)N[C@@H]1CCOC1 [Example 157, N-{(4S,8S)-10-[5-(4,4-difluorocyclohexyl)-1,2-oxazol-3-yl]-4,7,8,9-tetrahydro-5H-4,8-epiminooxocino[5,4-d][1,3]thiazol-2-yl}-N′-[(3R)-oxolan-3-yl]urea] | 4.6 μm
C[C@H](CO)NC(=O)Nc1nc2c(s1)[C@@H]1COC[C@H](C2)N1c1nc2cc(F)ccc2o1 [Example 39, N-[(4S,8S)-10-(5-fluoro-1,3-benzoxazol-2-yl)-4,7,8,9-tetrahydro-5H-4,8-epiminooxocino[5,4-d][1,3]thiazol-2-yl]-N′-[(2R)-1-hydroxypropan-2-yl]urea] | 2.5 μm
O=C(Nc1nc2c(s1)CN(c1nc(C3CCC(F)(F)CC3)no1)CC2)N[C@@H]1CCC[C@H]1O [Example 25, N-{5-[3-(4,4-difluorocyclohexyl)-1,2,4-oxadiazol-5-yl]-4,5,6,7-tetrahydro[1,3]thiazolo[5,4-c]pyridin-2-yl}-N′-[(1R,2R)-2-hydroxycyclopentyl]urea] | 0.81 μm
C[C@H]1NC(=O)N(c2nc3c(s2)[C@@H]2COC[C@H](C3)N2c2nc(-c3ccc(F)cc3)no2)C1=O [Example 20, (5R)-3-{(4S,8S)-10-[3-(4-fluorophenyl)-1,2,4-oxadiazol-5-yl]-4,7,8,9-tetrahydro-5H-4,8-epiminooxocino[5,4-d][1,3]thiazol-2-yl}-5-methylimidazolidine-2,4-dione] | 2.6 μm
O=C(Nc1nc2c(s1)CN(c1nc(C3(C(F)(F)F)CC3)no1)CC2)N[C@H]1C[C@H](O)C1 [Example 97, N-[(1r,3r)-3-hydroxycyclobutyl]-N′-(5-{3-[1-(trifluoromethyl)cyclopropyl]-1,2,4-oxadiazol-5-yl}-4,5,6,7-tetrahydro[1,3]thiazolo[5,4-c]pyridin-2-yl)urea] | 1.3 μm
COc1cccc(-c2cnc(N3[C@@H]4COC[C@H]3c3sc(NC(=O)N[C@H]5CC[C@H](O)CC5)nc3C4)o2)n1 [Example 188, N-[(1r,4r)-4-hydroxycyclohexyl]-N′-{(4S,8S)-10-[5-(6-methoxypyridin-2-yl)-1,3-oxazol-2-yl]-4,7,8,9-tetrahydro-5H-4,8-epiminooxocino[5,4-d][1,3]thiazol-2-yl}urea] | 0.4 μm
C[C@H](CO)NC(=O)Nc1nc2c(s1)[C@@H]1COC[C@H](C2)N1c1nc2cc(F)c(F)cc2o1 [Example 42, N-[(4S,8S)-10-(5,6-difluoro-1,3-benzoxazol-2-yl)-4,7,8,9-tetrahydro-5H-4,8-epiminooxocino[5,4-d][1,3]thiazol-2-yl]-N′-[(2R)-1-hydroxypropan-2-yl]urea] | 1.3 μm
O=C(Nc1nc2c(s1)[C@@H]1COC[C@H](C2)N1c1nc(-c2ccc(F)cc2)no1)N[C@H]1C[C@H](O)C1 [Example 86, N-{(4S,8S)-10-[3-(4-fluorophenyl)-1,2,4-oxadiazol-5-yl]-4,7,8,9-tetrahydro-5H-4,8-epiminooxocino[5,4-d][1,3]thiazol-2-yl}-N′-[(1r,3S)-3-hydroxycyclobutyl]urea] | 0.25 μm
CC(C)(O)CNC(=O)Nc1nc2c(s1)CN(c1nc(C3CCC(F)(F)C3)no1)CC2 (stereo not drawn) [Example 94, N-{5-[3-(3,3-difluorocyclopentyl)-1,2,4-oxadiazol-5-yl]-4,5,6,7-tetrahydro[1,3]thiazolo[5,4-c]pyridin-2-yl}-N′-(2-hydroxy-2-methylpropyl)urea] | 1.6 μm
CNC(=O)Nc1nc2c(s1)[C@@H]1COC[C@H](C2)N1c1ncc(-c2cccc(OC)n2)o1 [Example 15, N-{(4S,8S)-10-[5-(6-methoxypyridin-2-yl)-1,3-oxazol-2-yl]-4,7,8,9-tetrahydro-5H-4,8-epiminooxocino[5,4-d][1,3]thiazol-2-yl}-N′-methylurea] | 1.1 μm
